Laboratory results: ChEMBL document CHEMBL5678818, “Discovery of potent SOS1 inhibitors that block RAS activation via disruption of the RAS-SOS1 interaction” (Proc Natl Acad Sci U S A, 2019)

Assays:
[1] = biological target: T1, Phosphatidylinositol 3-kinase C2 domain-containing subunit gamma (Homo sapiens) (UniProt O75747); assay: Inhibition of PIK3C2G (unknown origin) assessed as residual activity at 100 nM by KINOMEscan analysis relative to control
T1 sequence (whole entry): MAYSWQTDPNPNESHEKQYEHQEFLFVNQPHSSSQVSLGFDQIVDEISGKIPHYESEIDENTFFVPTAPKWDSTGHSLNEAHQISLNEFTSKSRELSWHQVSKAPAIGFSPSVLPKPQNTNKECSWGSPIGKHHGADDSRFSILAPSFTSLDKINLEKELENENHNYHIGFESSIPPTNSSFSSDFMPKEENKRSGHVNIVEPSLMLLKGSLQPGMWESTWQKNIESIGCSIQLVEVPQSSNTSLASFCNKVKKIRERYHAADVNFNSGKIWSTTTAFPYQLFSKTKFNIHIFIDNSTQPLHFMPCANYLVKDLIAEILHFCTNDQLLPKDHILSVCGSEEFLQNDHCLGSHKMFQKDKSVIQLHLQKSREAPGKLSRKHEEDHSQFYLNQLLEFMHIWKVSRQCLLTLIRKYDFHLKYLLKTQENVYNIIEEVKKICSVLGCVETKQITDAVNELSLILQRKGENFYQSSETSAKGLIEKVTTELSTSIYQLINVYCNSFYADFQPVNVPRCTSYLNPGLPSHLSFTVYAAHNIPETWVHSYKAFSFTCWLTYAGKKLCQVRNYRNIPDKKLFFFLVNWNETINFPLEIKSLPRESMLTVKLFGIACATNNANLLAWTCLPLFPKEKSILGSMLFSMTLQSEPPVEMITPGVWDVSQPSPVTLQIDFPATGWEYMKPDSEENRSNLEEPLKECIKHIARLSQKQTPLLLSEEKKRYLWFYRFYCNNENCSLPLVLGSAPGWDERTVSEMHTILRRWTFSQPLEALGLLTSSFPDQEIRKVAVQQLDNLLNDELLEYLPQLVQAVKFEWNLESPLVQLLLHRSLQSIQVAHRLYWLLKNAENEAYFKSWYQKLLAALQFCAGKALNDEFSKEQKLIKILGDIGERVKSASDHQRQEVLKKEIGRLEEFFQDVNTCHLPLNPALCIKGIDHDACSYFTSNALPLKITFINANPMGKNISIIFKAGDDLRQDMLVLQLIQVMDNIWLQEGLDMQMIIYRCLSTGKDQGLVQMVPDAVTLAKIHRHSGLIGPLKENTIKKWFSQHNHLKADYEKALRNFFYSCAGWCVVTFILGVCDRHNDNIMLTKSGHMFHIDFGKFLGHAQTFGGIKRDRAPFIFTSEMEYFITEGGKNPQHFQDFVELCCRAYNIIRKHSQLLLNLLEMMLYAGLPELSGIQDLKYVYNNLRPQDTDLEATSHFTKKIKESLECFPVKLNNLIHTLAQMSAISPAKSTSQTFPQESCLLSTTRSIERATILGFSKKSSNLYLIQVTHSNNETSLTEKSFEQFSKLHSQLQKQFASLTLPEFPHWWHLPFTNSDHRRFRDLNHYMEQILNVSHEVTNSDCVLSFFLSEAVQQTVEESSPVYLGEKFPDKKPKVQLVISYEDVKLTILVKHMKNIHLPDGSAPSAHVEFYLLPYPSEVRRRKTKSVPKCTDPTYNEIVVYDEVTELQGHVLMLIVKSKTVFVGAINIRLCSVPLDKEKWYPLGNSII

[2] = biological target: Tyrosine-protein kinase Blk (Homo sapiens) (UniProt P51451); assay: Inhibition of BLK (unknown origin) assessed as residual activity at 100 nM by KINOMEscan analysis relative to control
[3] = biological target: BDNF/NT-3 growth factors receptor (Homo sapiens) (UniProt Q16620); assay: Inhibition of TRKB (unknown origin) assessed as residual activity at 100 nM by KINOMEscan analysis relative to control
[4] = biological target: T2, Serine/threonine-protein kinase Sgk1 (Homo sapiens) (UniProt O00141); assay: Inhibition of SGK (unknown origin) assessed as residual activity at 100 nM by KINOMEscan analysis relative to control
T2 sequence (whole entry): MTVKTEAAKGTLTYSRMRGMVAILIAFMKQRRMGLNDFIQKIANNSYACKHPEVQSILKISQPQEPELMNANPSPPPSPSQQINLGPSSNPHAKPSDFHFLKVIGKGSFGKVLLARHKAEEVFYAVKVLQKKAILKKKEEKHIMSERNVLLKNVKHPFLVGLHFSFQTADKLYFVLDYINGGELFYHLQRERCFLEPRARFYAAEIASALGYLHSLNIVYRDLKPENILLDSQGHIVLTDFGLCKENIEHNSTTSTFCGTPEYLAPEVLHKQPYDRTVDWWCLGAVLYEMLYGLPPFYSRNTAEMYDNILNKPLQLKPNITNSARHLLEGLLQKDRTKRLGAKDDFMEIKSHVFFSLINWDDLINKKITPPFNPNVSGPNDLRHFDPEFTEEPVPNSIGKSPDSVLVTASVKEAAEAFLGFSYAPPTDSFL

[5] = biological target: T3, Mitogen-activated protein kinase 15 (Homo sapiens) (UniProt Q8TD08); assay: Inhibition of ERK8 (unknown origin) assessed as residual activity at 100 nM by KINOMEscan analysis relative to control
T3 sequence (whole entry): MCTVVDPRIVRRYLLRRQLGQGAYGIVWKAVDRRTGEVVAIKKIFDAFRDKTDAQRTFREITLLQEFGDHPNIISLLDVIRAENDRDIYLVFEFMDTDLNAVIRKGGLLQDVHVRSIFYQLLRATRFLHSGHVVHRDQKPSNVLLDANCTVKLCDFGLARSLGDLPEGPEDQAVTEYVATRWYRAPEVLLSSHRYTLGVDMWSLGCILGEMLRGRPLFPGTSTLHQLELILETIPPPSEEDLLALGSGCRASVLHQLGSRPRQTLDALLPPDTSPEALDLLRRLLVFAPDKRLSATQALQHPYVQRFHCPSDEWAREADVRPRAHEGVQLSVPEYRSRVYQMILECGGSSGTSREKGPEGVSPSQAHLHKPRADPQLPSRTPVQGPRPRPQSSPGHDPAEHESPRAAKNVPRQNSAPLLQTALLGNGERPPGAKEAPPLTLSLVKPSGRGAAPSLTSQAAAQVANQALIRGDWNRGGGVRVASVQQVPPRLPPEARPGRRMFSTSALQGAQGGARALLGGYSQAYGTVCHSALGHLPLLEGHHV

[6] = biological target: Serine/threonine-protein kinase 25 (Homo sapiens) (UniProt O00506); assay: Inhibition of YSK1 (unknown origin) assessed as residual activity at 100 nM by KINOMEscan analysis relative to control
Serine/threonine-protein kinase 25 (Homo sapiens), sequence (O00506 whole entry, looked up): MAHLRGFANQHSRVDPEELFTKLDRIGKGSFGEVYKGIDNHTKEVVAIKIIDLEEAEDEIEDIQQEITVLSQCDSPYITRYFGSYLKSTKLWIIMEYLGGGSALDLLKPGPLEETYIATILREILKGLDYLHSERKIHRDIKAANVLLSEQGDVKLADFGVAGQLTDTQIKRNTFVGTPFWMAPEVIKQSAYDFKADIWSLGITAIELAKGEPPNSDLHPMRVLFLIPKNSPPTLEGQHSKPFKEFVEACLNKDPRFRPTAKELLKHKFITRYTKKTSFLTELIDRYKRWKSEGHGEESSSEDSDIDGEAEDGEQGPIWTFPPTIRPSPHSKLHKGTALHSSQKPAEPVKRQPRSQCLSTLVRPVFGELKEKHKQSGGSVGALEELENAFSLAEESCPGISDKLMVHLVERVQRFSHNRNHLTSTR

BDNF/NT-3 growth factors receptor (Homo sapiens), sequence (Q16620 32-822 limits assumed): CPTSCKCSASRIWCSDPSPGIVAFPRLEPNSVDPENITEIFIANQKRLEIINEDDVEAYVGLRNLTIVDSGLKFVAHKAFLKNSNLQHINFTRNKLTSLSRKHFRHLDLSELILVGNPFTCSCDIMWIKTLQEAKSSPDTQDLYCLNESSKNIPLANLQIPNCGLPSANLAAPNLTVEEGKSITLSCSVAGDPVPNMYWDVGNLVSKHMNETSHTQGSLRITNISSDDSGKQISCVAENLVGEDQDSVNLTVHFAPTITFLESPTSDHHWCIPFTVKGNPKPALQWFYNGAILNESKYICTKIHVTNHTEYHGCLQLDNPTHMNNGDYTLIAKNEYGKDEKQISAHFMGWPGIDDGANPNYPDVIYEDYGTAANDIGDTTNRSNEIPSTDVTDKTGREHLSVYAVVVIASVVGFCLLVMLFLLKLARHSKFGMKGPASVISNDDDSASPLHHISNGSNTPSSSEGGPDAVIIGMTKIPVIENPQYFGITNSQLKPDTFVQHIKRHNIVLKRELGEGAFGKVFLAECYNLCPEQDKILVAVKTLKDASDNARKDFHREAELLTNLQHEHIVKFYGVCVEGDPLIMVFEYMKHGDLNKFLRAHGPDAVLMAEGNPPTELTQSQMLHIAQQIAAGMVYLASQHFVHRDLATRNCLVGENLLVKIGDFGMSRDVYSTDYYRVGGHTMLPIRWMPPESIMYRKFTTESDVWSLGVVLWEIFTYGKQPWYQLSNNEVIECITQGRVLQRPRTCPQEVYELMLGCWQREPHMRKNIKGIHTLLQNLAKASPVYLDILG
Tyrosine-protein kinase Blk (Homo sapiens), sequence (P51451 2-505 limits assumed): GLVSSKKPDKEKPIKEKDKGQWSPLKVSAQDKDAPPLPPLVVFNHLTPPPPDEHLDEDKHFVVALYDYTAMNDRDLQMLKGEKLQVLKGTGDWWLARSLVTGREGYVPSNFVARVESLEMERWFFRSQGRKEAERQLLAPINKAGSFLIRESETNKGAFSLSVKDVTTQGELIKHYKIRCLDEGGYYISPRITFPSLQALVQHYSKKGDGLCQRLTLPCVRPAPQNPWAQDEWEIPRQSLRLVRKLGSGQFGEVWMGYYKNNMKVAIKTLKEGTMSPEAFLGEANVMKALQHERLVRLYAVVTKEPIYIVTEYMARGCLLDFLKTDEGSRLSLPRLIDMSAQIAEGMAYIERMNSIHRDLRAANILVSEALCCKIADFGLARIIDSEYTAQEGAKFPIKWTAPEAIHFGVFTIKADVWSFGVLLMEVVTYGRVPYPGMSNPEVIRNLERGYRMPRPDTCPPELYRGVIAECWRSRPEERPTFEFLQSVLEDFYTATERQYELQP

## COc1cc2ncnc(N[C@H](C)c3cccc4ccccc34)c2cc1OC
[1]
  Activity: 85%
[2]
  Activity: 77%
[3]
  Activity: 96%
[4]
  Activity: 87%
[5]
  Activity: 88%
[6]
  Activity: 100%
